# Legend:
# [1] = tested on: L. amazonensis promastigotes and amastigotes; experiment: Microscopic analysis of cell division; format: cell-based, Leishmania amazonensis; settings: 48 h at EC50^72 h
# Description: Promastigotes or amastigotes were treated with the indicated compound concentrations and allowed to adhere to poly-L-lysine coated plates. All cells were fixed with 4% paraformaldehyde and permeabilized/blocked with 0.01% Triton X-100 and 2% BSA in PBS. Promastigotes and amastigotes were incubated with mouse anti-gp46 or anti-p8, respectively at 1:50 or 1:1000 and rat anti-alpha-tubulin antibody at 1:1000. Samples were then probed with A568 anti-mouse and […] secondary antibodies (Molecular Probes). DNA was labeled with Hoescht. Samples were visualized on a Zeiss LSM 880 Inverted confocal Airyscan microscope at 63×; full Z-thicknesses through parasites were obtained. […] For microscopic analysis of mitotic arrest, at least 200 parasites were analyzed per condition per experiment after 48 hrs incubation at compounds' EC50, and the average plus standard error for three experiments was calculated. Representative images were selected from the maximal intensity projections and linearly processed in Adobe Photoshop CS6.
# The molecular target of MMV676477 was investigated.
# [2] = target: purified L. tarentolae tubulin (Leishmania tarentolae, UniProt A0A640KCM0+A0A640KQN0); experiment: Tubulin polymerization turbidity assay, Leishmania tubulin; format: biochemical
# Description: L. tarentolae (Parrot strain from ATCC) tubulin was purified. Briefly, promastigotes of L. tarentolae were grown to a high density (˜1×10^8 cells/mL), harvested, and resuspended in PME+P buffer containing 100 mM piperazine N, N′-bis (2-ethanesulfonic acid) (PIPES) buffer (pH 6.9), 1 mM glycol ether diamine tetraacetic acid (EGTA), 1 mM MgCl2, 1 mM benzamidine, 0.5 mM phenylmethylsulfonyl fluoride, 25 μg/ml leupeptin. The resulting suspension was extensively sonicated on ice with a probe sonicator (Misonix), cooled on ice for 30 minutes and centrifuged at 40,000×g for 1 hour at 4° C. using an ultracentrifuge (Beckman, Fullerton, CA). The resulting supernatant was filtered through a glass wool or 0.45-micron filter before loading into an equilibrated DEAE-Sepharose Fast Flow matrix (Amersham Biosciences). The column was washed with two column volumes of PME+P and subsequently four column volumes PME+P containing 0.1 M KCl and 0.25 M glutamate (pH 6.9). Tubulin was eluted with two column volumes PME+P containing 0.3 M KCl and 0.75 M glutamate (pH 6.9), and tubulin-rich fractions were confirmed by tubulin polymerization assays. The assembly-competent tubulin was pooled together and diluted into 1×PME buffer, 2 mM GTP, 10 mM MgCl2 and 8% DMSO (v/v). Tubulin was incubated in this buffer for 45 minutes at 30° C. to promote assembly, centrifuged at 50,000×g at 30° C. for 30 min, and re-suspended in 1 mL of ice-cold PME. […] Purity was assessed by SDS-PAGE and Coomassie Blue.
# Tubulin polymerization assays were performed in 96-well half-area microplates (Costar) in a final volume of 100 μL. […] The absorbance at 340 nm was recorded in a Synergy H1 microplate reader (BioTek) for up to 45 min at 37° C. […]
# To determine whether MMV676477 directly regulates microtubule assembly, assembly-competent tubulin from Leishmania tarentolae was purified and analyzed (FIG. 5A). […] 3 mg/mL purified L. tarentolae tubulin (3 mg/mL) was treated with serial dilutions of MMV676477 while the absorbance was measured at 340 nm over time.
# [3] = tested on: intracellular L. amazonensis amastigotes; experiment: Intracellular washout assay (LD50); format: cell-based, Leishmania amazonensis
# Description: Intracellular LD50s were measured. Briefly, RAW 264.7 cells were seeded to 96-multiwell plates at a density of 2×10^5 cells/mL (200 μL) and starved overnight at 37° C. The cells were infected with metacyclic promastigotes at a Multiplicity of Infection (MOI) of 15 and incubated for another 24 h at 37° C. The plates containing infected RAW 264.7 cells/BM primary M #s were washed five times with serum-free DMEM. Serially diluted compounds were added, and plates were incubated at 37° C. for 72 hrs. Wells were washed five times with DMEM, and the RAW 264.7 cells were lysed with 100 μL of 2 mg/mL saponin in DMEM for 5 min at room temperature, and further lysis was stopped with 100% FBS. After centrifugation, 200 μL acidic promastigotes media was replaced, plates were incubated at 26° C. for 96 h. Fluorescence intensity (alamarBlue®) was measured as described above.
# All routine in vitro quantification of antileishmanial drug potency is quantification of “cytostatic” potency. […] Therefore, the cytocidal action of MMV676477 was quantified by obtaining an LD50 at 72 h (a Lethal Dose that kills 50% of the bulk population of the parasites relative to untreated control) and compared it to the known cytocidal drug amphotericin. An intracellular washout assay was employed. […] The ratio of LD50:EC50 was calculated for MMV676477 and amphotericin. Lower ratios indicate that the LD50 is similar to the EC50 value, meaning that the estimated EC50 values represent killing of the parasites rather than simple growth inhibition.
smiles,measurement,setting,value
"CCc1c(C)nc(-n2nc(C)cc2NC(=O)c2ccccc2SC)[nH]c1=O [MMV676477, N-(1-(5-Ethyl-4-methyl-6-oxo-1,6-dihydropyrimidin-2-yl)-3-methyl-1H-pyrazol-5-yl)-2-(methylthio)benzamide]",percentage of L. amazonensis undergoing cell division,[1],significant two-fold increase
same,EC50,[2],500 nM
same,selectivity for purified Leishmania tubulin over mammalian tubulin,[2]; 0.5 vs 11 μM EC50,20 fold
same,LD50/EC50 ratio,[3]; intracellular amastigotes,1.2
same,LD50 72 h,"[3]; intracellular washout, 72 h",620 nM
